In patent US20210085640A1, “ACYLATED CATECHIN POLYPHENOLS AND METHODS OF THEIR USE FOR THE TREATMENT OF CANCER” (Flagship Pioneering Innovations V, Inc., priority 2018, published 2021):

How the values were obtained:
[1] = Stability in Simulated Gastric Fluid (SGF); format: in vitro ADME; details: SGF pH 1.6 with pepsin, 1 μM, 37° C.
Protocol: Stability of acylated active agents in Simulated Gastric Fluid (SGF). This assay was used to assess the stability of an acylated active agent in a stomach.
Medium was prepared by dissolving 2 g of sodium chloride in 0.6 L in ultrapure water (MilliQ®, Millipore Sigma, Darmstadt, Germany). The pH was adjusted to 1.6 with 1N hydrochloric acid, and the volume was then adjusted to 1 L with purified water.
60 mg FaSSIF powder (Biorelevant™, London, UK) were dissolved in 500 mL buffer (above). Pepsin was added (0.1 mg/mL) (Millipore Sigma, Darmstadt, Germany), and the solution was stirred. The resulting SGF media were used fresh for each experiment.
(§1) Test compounds were dissolved in DMSO stock to 1 mM. An aliquot of the DMSO stock solution was removed and diluted in the SGF Media in 15 mL falcon tubes to generate a total compound concentration of 1 μM. A 1 mL aliquot was immediately removed and diluted once with 1 volume of acetonitrile for T0 timepoint. The mixture was sealed and mixed at 37° C. in an incubator. Aliquots (1 mL) were removed at regular intervals and immediately quenched by the addition of 1 volume of acetonitrile. The resulting samples were analyzed by LC/MS to determine degradation rates

[2] = Stability in Simulated Intestinal Fluid (SIF); format: in vitro ADME
Protocol: SIF Stability of acylated active agents in Simulated Intestinal Fluid (SIF). This assay was used to assess the stability of an acylated active agent in a small intestine.
Phosphate buffer was prepared by dissolving 0.42 g of sodium hydroxide pellets and 3.95 g of monobasic sodium phosphate monohydrate and 6.19 g of sodium chloride in ultrapure water (MilliQ®, Millipore Sigma, Darmstadt, Germany). The pH was adjusted to 6.7 using aq. HCl and aq. NaOH, as necessary, and the solution was diluted with ultrapure water to produce 1 L of the pH 6.7 buffer.
112 mg FaSSIF powder (Biorelevant™, London, UK) was dissolved in 50 mL of the pH 6.7 buffer. 2 to 3 mL of the resulting solution were then added to 500 mg pancreatin (Millipore Sigma, Darmstadt, Germany). The resulting mixture was agitated by finger tapping the vessel containing the mixture until milky suspension formed. At this time, the remainder of the 50 mL FaSSiF/pH 6.7 buffer solution was added. The resulting suspension was flipped upside down 10 times to produce SIF, which was used fresh.
as §1, with “SIF media” for “SGF Media”, “produce” for “generate”, “mixture with a tested” for “total”, “agitated” for “mixed”, “rates.” for “rates”

T24 bladder cancer cells = assay: Cancer cell survival (CellTiter-Glo), T24; format: cell-based; details: 72 h
Procedure, shortened: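 T24 cells seeded at 4×10^3 cells/well overnight, then exposed 72 h at 37 C, 5% CO2 to nine concentrations in triplicate. Survival measured by CellTiter-Glo luminescence relative to untreated and medium controls; IC50 derived.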

[3] = tested on: Daudi lymphoma cancer cells; assay: Cancer cell survival (CellTiter-Glo), Daudi; format: cell-based; details: 72 h
Procedure, shortened: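 Daudi cells (4×10^3/well) were exposed for 72 h at 37 °C to nine concentrations of compound, added as 10× solutions spanning 1 μM–10 mM (fatty acids) or 100 nM–1 mM (others). CellTiter-Glo luminescence gave % survival versus untreated, medium-blank corrected; IC50 derived.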

MCF7 breast cancer cells = assay: Cancer cell survival (CellTiter-Glo), MCF7; format: cell-based; details: 72 h
Procedure, shortened: (§2)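 Cells were seeded at 4×10^3 cells/well and left overnight at 37 C, 5% CO2, then exposed in triplicate to nine compound concentrations for 72 h. Dosing solutions were made at 10× final (1 μM-10 mM fatty acids, 100 nM-1 mM other compounds). CellTiter-Glo luminescence, normalised to untreated and medium-only wells, gave IC50.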

[4] = tested on: HCT 116 colorectal cancer cells; assay: Cancer cell survival (CellTiter-Glo), HCT 116; format: cell-based; details: HCT 116 cells, 72 h
Procedure, shortened: as §2

A549 lung cancer cells = assay: Cancer cell survival (CellTiter-Glo), A549; format: cell-based; details: 72 h
Procedure, shortened: as §2

[5] = tested on: PC-3 prostate cancer cells; assay: Cancer cell survival (CellTiter-Glo), PC-3; format: cell-based; details: PC-3 cells, 72 h
Procedure, shortened: as §2

A-431 skin cancer cells = assay: Cancer cell survival (CellTiter-Glo), A-431; format: cell-based; set-up: Cell survival at given concentration: unit not given here; details: A-431 cells, 72 h
Procedure, shortened: as §2

AGS stomach cancer cells = assay: Cancer cell survival (CellTiter-Glo), AGS; format: cell-based; set-up: Cell survival at given concentration: unit not given here
Procedure, shortened: as §2

CC(=O)Oc1cc(OC(C)=O)c2c(=O)c(OC(C)=O)c(-c3ccc(OC(C)=O)c(OC(C)=O)c3)oc2c1 [Compound 4, [2-acetoxy-4-(3,5,7-triacetoxy-4-oxo-chromen-2-yl)phenyl] acetate]
Assay 1 (SGF) (% Remaining @ 1 hours) [1]: C (>75% of the tested compound remaining) | Assay 2 (SIF) (% @ Remaining 4 hours) ([2]; SIF pH 6.7 with pancreatin, 1 μM, 37° C., 4 hours): A (<25% of the tested compound remaining) | selective delivery to the upper intestine ([2]; conclusion drawn from Table 1 (SGF and SIF stability)): can be selectively delivered to the upper intestine

CC(=O)Oc1ccc(-c2oc3cc(OC(C)=O)cc(OC(C)=O)c3c(=O)c2OC(C)=O)cc1 [Compound 8, [4-(3,5,7-triacetoxy-4-oxo-chromen-2-yl)phenyl] acetate]
Assay 1 (SGF) (% Remaining @ 1 hours) [1]: C (>75% of the tested compound remaining)

CC(=O)Oc1cc(OC(C)=O)c2c(=O)c(OC(C)=O)c(-c3cc(OC(C)=O)c(OC(C)=O)c(OC(C)=O)c3)oc2c1 [Compound 11, [3,5-diacetoxy-4-oxo-2-(3,4,5-triacetoxyphenyl)chromen-7-yl] acetate]
Assay 1 (SGF) (% Remaining @ 1 hours) [1]: C (>75% of the tested compound remaining)

CCC(=O)Oc1cc(OC(=O)CC)c2c(c1)O[C@H](c1cc(OC(=O)CC)c(OC(=O)CC)c(OC(=O)CC)c1)[C@H](OC(=O)c1cc(OC(=O)CC)c(OC(=O)CC)c(OC(=O)CC)c1)C2 [Compound 15, [(2R,3R)-5,7-di(propanoyloxy)-2-[3,4,5-tri(propanoyloxy)phenyl]chroman-3-yl] 3,4,5-tri(propanoyloxy)benzoate]
Assay 1 (SGF) (% Remaining @ 1 hours) [1]: C (>75% of the tested compound remaining)

CCCC(=O)O[C@H](C)CCOC(=O)C[C@@H](C)OC(=O)CCC [Compound 23, (R)-3-(butyryloxy)butyl (R)-3-(butyryloxy)butanoate]
Assay 1 (SGF) (% Remaining @ 1 hours) [1]: C (>75% of the tested compound remaining)

CCCCC(=O)O [valerate]
Cell survival at given concentration (T24 bladder cancer cells; 1 μM, Table 3.2): 1.00 | Cell survival at given concentration (T24 bladder cancer cells; 3 μM, Table 3.2): 1.01 | Cell survival at given concentration (T24 bladder cancer cells; 10 μM, Table 3.2): 1.01 | Cell survival at given concentration (T24 bladder cancer cells; 32 μM, Table 3.2): 0.98 | Cell survival at given concentration (T24 bladder cancer cells; 100 μM, Table 3.2): 0.98 | Cell survival at given concentration (T24 bladder cancer cells; 317 μM): 0.92 | Cell survival at given concentration (T24 bladder cancer cells; 1 mM): 0.89 | Cell survival at given concentration (T24 bladder cancer cells; 3 mM): 0.79 | Cell survival at given concentration (T24 bladder cancer cells; 10 mM): 0.60 | IC50 (T24 bladder cancer cells; Table 3.2, read-out: IC50): > 10 mM | Cell survival at given concentration ([3]; 1 μM, Table 4.2): 0.99 | Cell survival at given concentration ([3]; 3 μM, Table 4.2): 0.98 | Cell survival at given concentration ([3]; 10 μM, Table 4.2): 0.98 | Cell survival at given concentration ([3]; 32 μM, Table 4.2): 1.01 | Cell survival at given concentration ([3]; 100 μM, Table 4.2): 0.95 | Cell survival at given concentration ([3]; 317 μM): 0.91 | Cell survival at given concentration ([3]; 1 mM): 0.76 | Cell survival at given concentration ([3]; 3 mM): 0.39 | Cell survival at given concentration ([3]; 10 mM): 0.12 | IC50 ([3]; Table 4.2): 2.3 mM | Cell survival at given concentration (MCF7 breast cancer cells; 1 μM, Table 5.2): 1.00 | Cell survival at given concentration (MCF7 breast cancer cells; 3 μM, Table 5.2): 1.02 | Cell survival at given concentration (MCF7 breast cancer cells; 10 μM, Table 5.2): 1.01 | Cell survival at given concentration (MCF7 breast cancer cells; 32 μM, Table 5.2): 0.97 | Cell survival at given concentration (MCF7 breast cancer cells; 100 μM, Table 5.2): 1.00 | Cell survival at given concentration (MCF7 breast cancer cells; 317 μM): 0.96 | Cell survival at given concentration (MCF7 breast cancer cells; 1 mM): 0.94 | Cell survival at given concentration (MCF7 breast cancer cells; 3 mM): 0.76 | Cell survival at given concentration (MCF7 breast cancer cells; 10 mM): 0.50 | IC50 (MCF7 breast cancer cells; Table 5.2): > 10 mM | Cell survival at given concentration ([4]; 1 μM, Table 6.2): 0.99 | Cell survival at given concentration ([4]; 3 μM, Table 6.2): 0.99 | Cell survival at given concentration ([4]; 10 μM, Table 6.2): 1.04 | Cell survival at given concentration ([4]; 32 μM, Table 6.2): 1.00 | Cell survival at given concentration ([4]; 100 μM, Table 6.2): 1.01 | Cell survival at given concentration ([4]; 317 μM): 0.99 | Cell survival at given concentration ([4]; 1 mM): 0.90 | Cell survival at given concentration ([4]; 3 mM): 0.60 | Cell survival at given concentration ([4]; 10 mM): 0.17 | IC50 ([4]; Table 6.2): 4.07 mM | Cell survival at given concentration (A549 lung cancer cells; 1 μM, Table 7.2): 0.98 | Cell survival at given concentration (A549 lung cancer cells; 3 μM, Table 7.2): 1.00 | Cell survival at given concentration (A549 lung cancer cells; 10 μM, Table 7.2): 1.01 | Cell survival at given concentration (A549 lung cancer cells; 32 μM, Table 7.2): 0.97 | Cell survival at given concentration (A549 lung cancer cells; 100 μM, Table 7.2): 1.04 | Cell survival at given concentration (A549 lung cancer cells; 317 μM): 1.02 | Cell survival at given concentration (A549 lung cancer cells; 1 mM): 0.98 | Cell survival at given concentration (A549 lung cancer cells; 3 mM): 0.87 | Cell survival at given concentration (A549 lung cancer cells; 10 mM): 0.62 | IC50 (A549 lung cancer cells; Table 7.2): > 10 mM | Cell survival at given concentration ([5]; 1 μM, Table 8.2): 1.00 | Cell survival at given concentration ([5]; 3 μM, Table 8.2): 0.99 | Cell survival at given concentration ([5]; 10 μM, Table 8.2): 1.02 | Cell survival at given concentration ([5]; 32 μM, Table 8.2): 1.01 | Cell survival at given concentration ([5]; 100 μM, Table 8.2): 1.04 | Cell survival at given concentration ([5]; 317 μM): 0.97 | Cell survival at given concentration ([5]; 1 mM): 0.94 | Cell survival at given concentration ([5]; 3 mM): 0.84 | Cell survival at given concentration ([5]; 10 mM): 0.69 | IC50 ([5]; Table 8.2): > 10 mM | Cell survival at given concentration (A-431 skin cancer cells; 1 μM, Table 9.2): 1.01 | Cell survival at given concentration (A-431 skin cancer cells; 3 μM, Table 9.2): 1.01 | Cell survival at given concentration (A-431 skin cancer cells; 10 μM, Table 9.2): 1.02 | Cell survival at given concentration (A-431 skin cancer cells; 32 μM, Table 9.2): 1.02 | Cell survival at given concentration (A-431 skin cancer cells; 100 μM, Table 9.2): 1.02 | Cell survival at given concentration (A-431 skin cancer cells; 317 μM): 1.03 | Cell survival at given concentration (A-431 skin cancer cells; 1 mM): 0.98 | Cell survival at given concentration (A-431 skin cancer cells; 3 mM): 0.89 | Cell survival at given concentration (A-431 skin cancer cells; 10 mM): 0.71 | Cell survival at given concentration (AGS stomach cancer cells; 1 μM, Table 10.2): 1.03 | Cell survival at given concentration (AGS stomach cancer cells; 3 μM, Table 10.2): 1.03 | Cell survival at given concentration (AGS stomach cancer cells; 10 μM, Table 10.2): 1.04 | Cell survival at given concentration (AGS stomach cancer cells; 32 μM, Table 10.2): 1.03 | Cell survival at given concentration (AGS stomach cancer cells; 100 μM, Table 10.2): 1.05 | Cell survival at given concentration (AGS stomach cancer cells; 317 μM): 1.06 | Cell survival at given concentration (AGS stomach cancer cells; 1 mM): 1.06 | Cell survival at given concentration (AGS stomach cancer cells; 3 mM): 0.97 | Cell survival at given concentration (AGS stomach cancer cells; 10 mM): 0.63
